Where two headings read alike, the source gives them in different places.
Tests used:
[1] = system: HOP-62; test: NCI DTP antiproliferative screen, lung HOP-62; format: cell-based, human
Description: (§1) The norindenoisoquinolines are examined for antiproliferative activity in the National Cancer Institute's Developmental Therapeutics Program (DTP) (Boyd & Paull, Some Practical Considerations and Applications of the National Cancer Institute In Vitro Anticancer Drug Discovery Screen. Drug Development Res. 1995, 34, 91-109; Shoemaker, The NCI60 Human Tumour Cell Line Anticancer Drug screen. Nat. Rev. Cancer 2006, 6, 813-823). Each compound is evaluated against approximately 55 human cell lines representing leukemia, melanoma, and cancers of the lung, colon, brain, breast, ovary, prostate and kidney. After an initial one-dose assay at a single high dose (10^−5 M), only compounds that satisfy the pre-determined threshold inhibition criteria are selected for further 5-dose assay.

[2] = system: HCT-116; test: NCI DTP antiproliferative screen, colon HCT-116; format: cell-based, human
Description: as §1

[3] = system: SF-539; test: NCI DTP antiproliferative screen, CNS SF-539; format: cell-based, human
Description: as §1

[4] = system: UACC-62; test: NCI DTP antiproliferative screen, melanoma UACC-62; format: cell-based, human
Description: as §1

[5] = system: OVCAR-3; test: NCI DTP antiproliferative screen, ovarian OVCAR-3; format: cell-based, human
Description: as §1

[6] = system: SN12C; test: NCI DTP antiproliferative screen, renal SN12C; format: cell-based, human
Description: as §1

[7] = system: DU-145; test: NCI DTP antiproliferative screen, prostate DU-145; format: cell-based, human
Description: as §1

[8] = system: MDA-MB-435; test: NCI DTP antiproliferative screen, breast MDA-MB-435; format: cell-based; settings: Homo sapiens, MDA-MB-435, read-out: Cytotoxicity GI50 Breast MDA-MB-435
Description: as §1

[9] = system: all human cancer cell lines successfully tested; test: NCI DTP antiproliferative screen, mean graph midpoint; format: cell-based; settings: average GI50 of all cell lines tested; values outside 10^-8 to 10^-4 M taken as the limits
Description: as §1

[10] = biological target: T1, Human recombinant Top1 (Homo sapiens, UniProt P11387); test: Topoisomerase I-mediated DNA cleavage reactions; format: biochemical; set-up: key to Top1 cleavage: 0: no activity; +: weak activity; ++: similar activity as CPT; +++ and ++++: greater activity than CPT; ++++: similar activity as 1 uM CPT; settings: for Top1 cleavage: semiquantitative, relative to 1 uM CPT, concentrations ranging up to 10 uM
T1 construct: made in house
T1 sequence (P11387 1-765): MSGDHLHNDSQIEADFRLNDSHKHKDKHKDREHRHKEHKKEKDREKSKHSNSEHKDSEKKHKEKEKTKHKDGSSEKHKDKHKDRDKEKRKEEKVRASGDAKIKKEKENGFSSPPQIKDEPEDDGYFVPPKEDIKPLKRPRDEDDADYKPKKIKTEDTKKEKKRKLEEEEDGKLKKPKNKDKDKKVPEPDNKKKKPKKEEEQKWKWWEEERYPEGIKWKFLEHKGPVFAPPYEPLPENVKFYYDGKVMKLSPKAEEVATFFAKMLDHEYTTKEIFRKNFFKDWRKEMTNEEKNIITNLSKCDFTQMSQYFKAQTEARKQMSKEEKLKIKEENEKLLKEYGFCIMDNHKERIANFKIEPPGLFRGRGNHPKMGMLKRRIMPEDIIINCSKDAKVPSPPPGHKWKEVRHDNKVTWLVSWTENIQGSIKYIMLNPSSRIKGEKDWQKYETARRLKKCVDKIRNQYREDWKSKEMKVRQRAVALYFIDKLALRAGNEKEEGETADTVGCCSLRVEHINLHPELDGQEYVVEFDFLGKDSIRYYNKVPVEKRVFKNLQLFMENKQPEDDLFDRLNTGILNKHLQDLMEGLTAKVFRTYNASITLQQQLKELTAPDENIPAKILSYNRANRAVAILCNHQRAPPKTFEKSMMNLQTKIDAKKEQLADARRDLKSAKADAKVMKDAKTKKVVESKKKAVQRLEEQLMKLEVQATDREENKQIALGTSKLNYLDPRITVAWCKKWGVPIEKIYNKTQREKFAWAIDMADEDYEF
Description: Norindenoisoquinolines 14a-f are examined for induction of Top1-mediated DNA cleavage using a 117-bp DNA oligonucleotide encompassing the previously identified Top1 cleavage sites in the 161-bp fragment from pBluescript SK(−) phagemid DNA (Dexheimer & Pommier DNA Cleavage Assay for the Identification of Topoisomerase I Inhibitors. Nat. Protocol. 2008, 3, 1736-1750).
Human recombinant Top1 was purified from baculovirus as previously described.^46 DNA cleavage reactions were prepared as previously reported with the exception of the DNA substrate.^13 Briefly, a 117-bp DNA oligonucleotide (Integrated DNA Technologies) encompassing the previously identified Top1 cleavage sites in the 161-bp fragment from pBluescript SK(−) phagemid DNA was employed. This 117-bp oligonucleotide contains a single 5′-cytosine overhang, which was 3′-end labeled by fill-in reaction with [α-^32P]-dGTP in React 2 buffer (50 mM Tris-HCl, pH 8.0, […], 50 mM NaCl) with 0.5 units of DNA polymerase I (Klenow fragment, New England BioLabs). Unincorporated ^32P-dGTP was removed using mini Quick Spin DNA columns (Roche, Indianapolis, Ind.), and the eluate containing the 3′-end-labeled DNA substrate was collected. Approximately 2 nM of radiolabeled DNA substrate was incubated with recombinant Top1 in 20 μL of reaction buffer [10 mM Tris-HCl (pH 7.5), 50 mM KCl, 5 mM MgCl2, 0.1 mM EDTA, and 15 μg/ml BSA] at 25° C. for 20 min in the presence of various concentrations of compounds. The reactions were terminated by adding SDS (0.5% final concentration) followed by the addition of two volumes of loading dye (80% formamide, 10 mM sodium hydroxide, 1 mM sodium EDTA, 0.1% xylene cyanol, and 0.1% bromphenol blue). Aliquots of each reaction were subjected to 20% denaturing PAGE. Gels were dried and visualized by using a Phosphoimager and ImageQuant software (Molecular Dynamics). For simplicity, cleavage sites were numbered as previously described in the 161-bp fragment.

[11] = system: SR; test: NCI DTP antiproliferative screen, leukemia SR; format: cell-based, human
Description: as §1

[12] = system: NCI-H460; test: NCI DTP antiproliferative screen, non-small cell lung cancer NCI-H460; format: cell-based, human
Description: as §1

[13] = system: IGROVI; test: NCI DTP antiproliferative screen, ovarian cancer IGROVI; format: cell-based, human
Description: as §1

[14] = system: MCF7; test: NCI DTP antiproliferative screen, breast cancer MCF7; format: cell-based, human
Description: as §1

[15] = system: HCC-2998; test: NCI DTP antiproliferative screen, colon cancer HCC-2998; format: cell-based, human
Description: as §1

[16] = system: COLO 205; test: NCI DTP antiproliferative screen, colon cancer COLO 205; format: cell-based, human
Description: as §1

[17] = system: CAKI-1; test: NCI DTP antiproliferative screen, renal cancer CAKI-1; format: cell-based, human
Description: as §1

[18] = system: ACHN; test: NCI DTP antiproliferative screen, renal cancer ACHN; format: cell-based, human
Description: as §1

[19] = system: U251; test: NCI DTP antiproliferative screen, CNS cancer U251; format: cell-based, human
Description: as §1

[20] = system: SF-295; test: NCI DTP antiproliferative screen, CNS cancer SF-295; format: cell-based, human
Description: as §1

[21] = system: CCRF-CEM; test: NCI DTP antiproliferative screen, leukemia CCRF-CEM; format: cell-based, human; settings: read-out: GI50 against leukemia CCRF-CEM
Description: as §1

[22] = system: RPMI-8226; test: NCI DTP antiproliferative screen, leukemia RPMI-8226; format: cell-based, human; settings: read-out: GI50 against leukemia RPMI-8226
Description: as §1

[23] = system: MOLT-4; test: NCI DTP antiproliferative screen, leukemia MOLT-4; format: cell-based, human; settings: read-out: GI50 against leukemia MOLT-4
Description: as §1

[24] = Homo sapiens, HOP-62, read-out: Cytotoxicity GI50 Lung HOP-62
[25] = Homo sapiens, HCT-116, read-out: Cytotoxicity GI50 Colon HCT-116
[26] = Homo sapiens, read-out: Cytotoxicity GI50 CNS SF-539
[27] = Homo sapiens, UACC-62, read-out: Cytotoxicity GI50 Melanoma UACC-62
[28] = Homo sapiens, OVCAR-3, read-out: Cytotoxicity GI50 Ovarian OVCAR-3
[29] = Homo sapiens, SN12C, read-out: Cytotoxicity GI50 Renal SN12C
[30] = Homo sapiens, DU-145, read-out: Cytotoxicity GI50 Prostate DU-145
[31] = 117-bp DNA substrate, gel of FIG. 2

## COc1cc2cnc3c(c2cc1OC)Cc1c-3cc2c(c1C)OCO2 [Compound 15, 2,3-Dimethoxy-8,9-methylenedioxy-10-methyl-11H-indeno[1,2-c]isoquinoline]
[1]; [24]
  GI50: 7300 nM
[2]; [25]
  GI50: 890 nM
[3]; [26]
  GI50: 4600 nM
[4]; [27]
  GI50: 700 nM
[5]; [28]
  GI50: 5800 nM
[6]; [29]
  GI50: > 100000 nM
[7]; [30]
  GI50: > 100000 nM
[8]
  GI50: > 100000 nM
[9]
  MGM (mean graph midpoint for growth inhibition): 11.8 µM
[10]; [31]
  44 (C-G) cleavage site in Top1-mediated DNA cleavage pattern: seen
  97 (T-A) cleavage site in Top1-mediated DNA cleavage pattern: observed
  106 (C-T) cleavage site in Top1-mediated DNA cleavage pattern: observed
[10]
  Top1 cleavage: ++
other
  melting point: 272 to 274 °C (dec.)

## COc1cc2cnc3c(c2cc1OC)Cc1c-3cc2c(c1CN(C)C)OCO2 [Compound 14a, 2,3-Dimethoxy-8,9-methylenedioxy-10-(dimethylamino)methyl-11H-indeno[1,2-c]isoquinoline]
[1]; [24]
  GI50: 6700 nM
[2]; [25]
  GI50: 1500 nM
[3]; [26]
  GI50: 14000 nM
[4]; [27]
  GI50: 12000 nM
[5]; [28]
  GI50: 1400 nM
[6]; [29]
  GI50: 13000 nM
[7]; [30]
  GI50: 1600 nM
[8]
  GI50: 16000 nM
[9]
  MGM (mean graph midpoint for growth inhibition): 4.4 µM
[10]
  Top1 cleavage: +++
other
  melting point: 205 to 207 °C

## COc1cc2cnc3c(c2cc1OC)Cc1c-3cc2c(c1Cn1ccnc1)OCO2 [Compound 14c, 2,3-Dimethoxy-8,9-methylenedioxy-10-(1H-imidazol-yl)methyl-11H-indeno[1,2-c]isoquinoline]
[1]
  GI50: 350 nM
[2]
  GI50: 160 nM
[3]
  GI50: 280 nM
[4]
  GI50: 210 nM
[4]; 1st run, read-out: GI50 Melanoma UACC-62
  GI50: 210 nM
[4]; 2nd run, read-out: GI50 Melanoma UACC-62
  GI50: 180 nM
[4]; Mean of runs, read-out: GI50 Melanoma UACC-62
  GI50: 200 nM
[5]
  GI50: 210 nM
[6]
  GI50: 600 nM
[7]
  GI50: 260 nM
[7]; 1st run, read-out: GI50 Prostate Cancer DU-145
  GI50: 260 nM
[7]; 2nd run, read-out: GI50 Prostate Cancer DU-145
  GI50: 410 nM
[7]; Mean of runs, read-out: GI50 Prostate Cancer DU-145
  GI50: 330 nM
[9]
  MGM (mean graph midpoint for growth inhibition): 0.52 µM
[11]; 1st run, read-out: GI50 Leukemia SR
  GI50: 12 nM
[11]; Mean of runs, read-out: GI50 Leukemia SR
  GI50: 12 nM
[11]; read-out: GI50 against leukemia SR
  GI50: 12 nM
[12]; 1st run
  GI50: 160 nM
[12]; 2nd run
  GI50: 110 nM
[12]; Mean of runs
  GI50: 130 nM
[13]; 1st run, read-out: GI50 Ovarian Cancer IGROVI
  GI50: 33 nM
[13]; 2nd run, read-out: GI50 Ovarian Cancer IGROVI
  GI50: 210 nM
[13]; Mean of runs, read-out: GI50 Ovarian Cancer IGROVI
  GI50: 120 nM
[13]; read-out: GI50 against human ovarian cancer cell IGROVI
  GI50: 121 nM
[14]; 1st run, read-out: GI50 Breast Cancer MCF7
  GI50: 90 nM
[14]; 2nd run, read-out: GI50 Breast Cancer MCF7
  GI50: 89 nM
[14]; Mean of runs, read-out: GI50 Breast Cancer MCF7
  GI50: 90 nM
[14]; read-out: GI50 against human breast cancer cell MCF-7
  GI50: 90 nM
[15]; 1st run
  GI50: 110 nM
[15]; 2nd run
  GI50: 2100 nM
[15]; Mean of runs
  GI50: 1100 nM
[16]; 1st run
  GI50: 760 nM
[16]; 2nd run
  GI50: 280 nM
[16]; Mean of runs
  GI50: 510 nM
[17]; 1st run
  GI50: 170 nM
[17]; 2nd run
  GI50: 400 nM
[17]; Mean of runs
  GI50: 290 nM
[18]; 1st run
  GI50: 270 nM
[18]; 2nd run
  GI50: 300 nM
[18]; Mean of runs
  GI50: 280 nM
[19]; 1st run
  GI50: 150 nM
[19]; 2nd run
  GI50: 170 nM
[19]; Mean of runs
  GI50: 160 nM
[20]; 1st run
  GI50: 160 nM
[20]; 2nd run
  GI50: 130 nM
[20]; Mean of runs
  GI50: 150 nM
[21]
  GI50: 37 nM
[22]
  GI50: 41 nM
[23]
  GI50: 60 nM

From patent US9206193B2, “Substituted norindenoisoquinolines, syntheses thereof, and methods of use” (PURDUE RESEARCH FOUNDATION, priority 2010, dated 2015)
